Results from patent US9334263B2, “Compositions useful for treating disorders related to kit” (BLUEPRINT MEDICINES CORPORATION, priority 2013, dated 2016).

Target: T1, D816V Kit (Homo sapiens, UniProt P10721, D816V)
T1 construct: purchased Carna Bioscience 08-156
Assay: Kit D816V assay at Km (Caliper electrophoretic mobility shift)
Format: biochemical
Conditions: 15 uM ATP, 25 C, 90 minutes
Outline: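 Read-out is the ratio of phosphorylated to unphosphorylated fluorescent peptide, resolved by mobility shift on a Caliper EZ Reader 2.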

T1 sequence (P10721 26-976 D816V): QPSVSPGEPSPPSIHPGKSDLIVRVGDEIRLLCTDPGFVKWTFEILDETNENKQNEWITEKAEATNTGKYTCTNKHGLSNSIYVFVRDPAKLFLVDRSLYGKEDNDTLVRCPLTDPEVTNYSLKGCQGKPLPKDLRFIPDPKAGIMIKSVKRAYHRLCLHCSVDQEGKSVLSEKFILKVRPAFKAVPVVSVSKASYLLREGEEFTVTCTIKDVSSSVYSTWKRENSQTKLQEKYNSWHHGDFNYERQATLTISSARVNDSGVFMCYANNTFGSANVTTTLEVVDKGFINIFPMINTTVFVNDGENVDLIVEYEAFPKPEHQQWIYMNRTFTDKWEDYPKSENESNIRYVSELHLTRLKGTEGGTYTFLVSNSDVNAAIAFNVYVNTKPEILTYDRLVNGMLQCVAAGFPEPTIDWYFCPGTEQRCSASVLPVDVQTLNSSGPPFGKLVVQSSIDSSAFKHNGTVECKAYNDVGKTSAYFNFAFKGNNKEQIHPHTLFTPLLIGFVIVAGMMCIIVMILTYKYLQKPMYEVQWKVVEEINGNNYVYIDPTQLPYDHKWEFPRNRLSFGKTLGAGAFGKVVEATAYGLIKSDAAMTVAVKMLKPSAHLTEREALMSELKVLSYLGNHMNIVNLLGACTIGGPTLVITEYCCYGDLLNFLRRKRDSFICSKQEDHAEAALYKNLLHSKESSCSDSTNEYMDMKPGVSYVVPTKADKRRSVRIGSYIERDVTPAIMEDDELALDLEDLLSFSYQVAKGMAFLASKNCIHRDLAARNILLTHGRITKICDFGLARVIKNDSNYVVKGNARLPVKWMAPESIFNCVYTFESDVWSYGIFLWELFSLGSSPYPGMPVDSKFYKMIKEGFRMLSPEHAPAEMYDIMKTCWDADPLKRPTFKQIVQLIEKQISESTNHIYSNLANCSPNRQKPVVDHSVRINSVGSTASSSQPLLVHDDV

IC50 [µM] | Compound
0.01 to 0.1 | c1ccc(Cc2cnc(N3CCN(c4ncnc(Nc5ccc6c(c5)CNCC6)n4)C(Cc4ccccc4)C3)nc2)cc1 (centres unmarked) [Compound 274]
> 0.1 | N#Cc1ccc(NC(=O)N2CCN(c3ncnc(Nc4ccc(N5CCOCC5)cc4)n3)CC2)cc1 [Compound 59]
< 0.001 | OC[C@@H]1CN(c2ncnc(Nc3cnn(CC4CNCCO4)c3)n2)CCN1c1ncc(Cc2ccccc2)cn1 (some centres unmarked) [Compound 248]
0.00101 to 0.01 | CN(C)S(=O)(=O)Cc1ccc(Nc2ncnc(N3CCN(c4ncc(Cc5ccccc5)cn4)CC3)n2)cc1 [Compound 252]
0.00101 to 0.01 | O[C@H]1CCCN(c2ccc(Nc3ncnc(N4CCN(c5ncc(Cc6ccc(F)cc6)cn5)CC4)n3)cc2)C1 [Compound 240]
< 0.001 | Nc1nc(N2CCN(c3ncnc(Nc4ccc5c(c4)CN(CCO)CC5)n3)CC2)ncc1Cc1ccccc1 [Compound 229]
0.00101 to 0.01 | [2H]C([2H])(c1ccccc1)c1cnc(N2CCN(c3ncnc(Nc4cnn(C[C@@H]5CNCCO5)c4)n3)CC2)nc1 [Compound 141]
0.00101 to 0.01 | Cc1c(Nc2ncnc(N3CCN(c4ncc(Sc5ccccc5F)cn4)CC3)n2)cnn1C[C@H](C)O [Compound 154]
0.00101 to 0.01 | CC1(C)CNCc2cc(Nc3ncnc(N4CCN(c5ncc(Cc6ccccc6)cn5)CC4)n3)ccc21 [Compound 99]
< 0.001 | Nc1nc(N2CCN(c3ncnc(Nc4cnc5c(c4)CNCC5)n3)CC2)ncc1Cc1ccccc1 [Compound 78]
< 0.001 | CC(C)(c1ccc(F)cc1)c1cnc(N2CCN(c3ncnc(Nc4cnn(C[C@@H]5CNCCO5)c4)n3)CC2)nc1 [Compound 267]
0.00101 to 0.01 | COc1nc(N2CCN(c3ncnc(Nc4cnn(C[C@@H]5CNCCO5)c4)n3)CC2)ncc1Cc1ccccc1 [Compound 246]
0.00101 to 0.01 | COc1ccccc1Cc1cnc(N2CCN(c3ncnc(Nc4ccc5c(c4)CNCC5)n3)CC2)nc1 [Compound 113]
< 0.001 | C[C@](N)(c1ccc(F)cc1)c1cnc(N2CCN(c3ncnc(Nc4ccc(N5CCC[C@H](O)C5)cc4)n3)CC2)nc1 [Compound 275]
< 0.001 | Fc1ccccc1Cc1cnc(N2CCN(c3ncnc(Nc4cnn(C[C@@H]5CNCCO5)c4)n3)CC2)cn1 [Compound 198]
0.00101 to 0.01 | c1ccc(Nc2cnc(N3CCN(c4ncnc(Nc5cnn(C[C@@H]6CNCCO6)c5)n4)CC3)nc2)cc1 [Compound 135]
0.00101 to 0.01 | C[C@H](c1ccccc1)c1cnc(N2CCN(c3ncnc(Nc4ccc(N5CCC[C@@H](O)C5)cc4)n3)CC2)nc1 [Compound 223]
0.00101 to 0.01 | Fc1cc(O[C@H]2CCCNC2)ccc1Nc1ncnc(N2CCN(c3ncc(Cc4ccccc4)cn3)CC2)n1 [Compound 238]
0.00101 to 0.01 | c1cncc(Cc2cnc(N3CCN(c4ncnc(Nc5ccc6c(c5)CNCC6)n4)CC3)nc2)c1 [Compound 45]
0.00101 to 0.01 | OC1(c2ccc(Nc3ncnc(N4CCN(c5ncc(Cc6ccccc6)cn5)CC4)n3)cc2)COC1 [Compound 79]
< 0.001 | Fc1ccc(Cc2cnc(N3CCN(c4ncnc(Nc5ccc6c(c5)CNCC6)n4)CC3)nc2)c(F)c1 [Compound 138]
0.00101 to 0.01 | COc1cc(Nc2ncnc(N3CCN(c4ncc(Cc5ccccc5)cn4)CC3)n2)cc(OC)c1 [Compound 54]
0.00101 to 0.01 | OC[C@@H](O)COc1ccc(Nc2ncnc(N3CCN(c4ncc(Cc5ccccc5)cn4)CC3)n2)cc1 [Compound 129]
< 0.001 | Cc1c(Nc2ncnc(N3CCN(c4ncc(Cc5ccccc5F)cn4)CC3)n2)cnn1C[C@@H]1CNCCO1 [Compound 272]
0.00101 to 0.01 | C[C@@H]1CN(c2ncnc(Nc3cnn(C[C@@H]4CNCCO4)c3)n2)CCN1c1ncc(Cc2ccccc2)cn1 [Compound 183]

Target: T2, wild type Kit (Homo sapiens, UniProt P10721)
T2 construct: purchased Carna Bioscience 08-156
Assay: Kit wild type assay at Km (Caliper electrophoretic mobility shift)
Format: biochemical
Conditions: 400 uM ATP, 25 C, 90 minutes; read-out: WT KIT
Protocol: In order to assess the activity of chemical compounds against the relevant kinase of interest, the Caliper LifeSciences electrophoretic mobility shift technology platform is used. Fluorescently labeled substrate peptide is incubated in the presence of kinase and ATP so that a […] proportion of the peptide is phosphorylated. At the end of the reaction, the mix of phosphorylated (product) and non-phosphorylated (substrate) peptides are passed through the microfluidic system of the Caliper EZ Reader 2, under an applied potential difference. The presence of the phosphate group on the product peptide provides a difference in mass and charge between those of the substrate peptide, resulting in a separation of the substrate and product pools in the sample. As the pools pass a LEDS within the instrument, these pools are detected and resolved as separate peaks. The ratio between these peaks therefore reflects the activity of the chemical matter at that concentration in that well, under those conditions.
The reaction was stopped by the addition of 70 ul of Stop buffer (100 mM HEPES pH 7.5, 0.015% Brij 35, 35 mM EDTA and 0.2% of Coating Reagent 3 (Caliper Lifesciences)). The plate was then read on a Caliper EZReader 2 (protocol settings: −1.9 psi, upstream voltage −700, downstream voltage −3000, post sample sip 35 s).

T2 sequence (P10721 26-976): as the sequence (P10721 26-976 D816V) above, with V791D counted along it

IC50 [µM] | Compound
0.1 to 1 | c1ccc(Cc2cnc(N3CCN(c4ncnc(Nc5ccc6c(c5)CNCC6)n4)C(Cc4ccccc4)C3)nc2)cc1 (centres unmarked) [Compound 274]
0.1 to 1 | N#Cc1ccc(NC(=O)N2CCN(c3ncnc(Nc4ccc(N5CCOCC5)cc4)n3)CC2)cc1 [Compound 59]
0.1 to 1 | COc1cc(Nc2ncnc(N3CCN(c4ncc(Cc5ccccc5)cn4)CC3)n2)cc(OC)c1 [Compound 54]

Target: T3, Kit D816V (HMC1.2 cells, Kit V560G and D816V) (Homo sapiens, UniProt P10721, D816V/V560G)
T3 construct: endogenous in cells; host or cells: HMC1.2 cells
Assay: HMC1.2 autophosphorylation assay (AlphaLISA, phospho-Y719 c-Kit)
Format: cell-based
Conditions: Kit autophosphorylation at tyrosine 719, 90 minutes, read-out: Cellular Activity
Outline: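 Serum-starved (overnight, serum-free IMDM) HMC1.2 cells were treated for 90 min with a 10-point compound series (25 uM–95.4 pM, 0.25% DMSO final). Lysates were probed with phospho-Y719 and total c-Kit antibodies (15 nM final) plus AlphaLISA acceptor and streptavidin donor beads (2 h each, RT), with AlphaScreen read-out.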

T3 sequence (P10721 26-976 V560G/D816V): as the sequence (P10721 26-976 D816V) above, with V535G counted along it

IC50 [µM] | Compound
0.01 to 0.1 | OC[C@@H]1CN(c2ncnc(Nc3cnn(CC4CNCCO4)c3)n2)CCN1c1ncc(Cc2ccccc2)cn1 (some centres unmarked) [Compound 248]
0.01 to 0.1 | CN(C)S(=O)(=O)Cc1ccc(Nc2ncnc(N3CCN(c4ncc(Cc5ccccc5)cn4)CC3)n2)cc1 [Compound 252]
< 0.01 | O[C@H]1CCCN(c2ccc(Nc3ncnc(N4CCN(c5ncc(Cc6ccc(F)cc6)cn5)CC4)n3)cc2)C1 [Compound 240]
< 0.01 | Nc1nc(N2CCN(c3ncnc(Nc4ccc5c(c4)CN(CCO)CC5)n3)CC2)ncc1Cc1ccccc1 [Compound 229]
0.01 to 0.1 | [2H]C([2H])(c1ccccc1)c1cnc(N2CCN(c3ncnc(Nc4cnn(C[C@@H]5CNCCO5)c4)n3)CC2)nc1 [Compound 141]
0.01 to 0.1 | Cc1c(Nc2ncnc(N3CCN(c4ncc(Sc5ccccc5F)cn4)CC3)n2)cnn1C[C@H](C)O [Compound 154]
< 0.01 | CC1(C)CNCc2cc(Nc3ncnc(N4CCN(c5ncc(Cc6ccccc6)cn5)CC4)n3)ccc21 [Compound 99]
0.01 to 0.1 | Nc1nc(N2CCN(c3ncnc(Nc4cnc5c(c4)CNCC5)n3)CC2)ncc1Cc1ccccc1 [Compound 78]
0.01 to 0.1 | CC(C)(c1ccc(F)cc1)c1cnc(N2CCN(c3ncnc(Nc4cnn(C[C@@H]5CNCCO5)c4)n3)CC2)nc1 [Compound 267]
1 to 10 | COc1nc(N2CCN(c3ncnc(Nc4cnn(C[C@@H]5CNCCO5)c4)n3)CC2)ncc1Cc1ccccc1 [Compound 246]
0.1 to 1 | COc1ccccc1Cc1cnc(N2CCN(c3ncnc(Nc4ccc5c(c4)CNCC5)n3)CC2)nc1 [Compound 113]
0.01 to 0.1 | C[C@](N)(c1ccc(F)cc1)c1cnc(N2CCN(c3ncnc(Nc4ccc(N5CCC[C@H](O)C5)cc4)n3)CC2)nc1 [Compound 275]
< 0.01 | Fc1ccccc1Cc1cnc(N2CCN(c3ncnc(Nc4cnn(C[C@@H]5CNCCO5)c4)n3)CC2)cn1 [Compound 198]
0.01 to 0.1 | c1ccc(Nc2cnc(N3CCN(c4ncnc(Nc5cnn(C[C@@H]6CNCCO6)c5)n4)CC3)nc2)cc1 [Compound 135]
0.01 to 0.1 | C[C@H](c1ccccc1)c1cnc(N2CCN(c3ncnc(Nc4ccc(N5CCC[C@@H](O)C5)cc4)n3)CC2)nc1 [Compound 223]
0.1 to 1 | Fc1cc(O[C@H]2CCCNC2)ccc1Nc1ncnc(N2CCN(c3ncc(Cc4ccccc4)cn3)CC2)n1 [Compound 238]
0.01 to 0.1 | c1cncc(Cc2cnc(N3CCN(c4ncnc(Nc5ccc6c(c5)CNCC6)n4)CC3)nc2)c1 [Compound 45]
0.01 to 0.1 | OC1(c2ccc(Nc3ncnc(N4CCN(c5ncc(Cc6ccccc6)cn5)CC4)n3)cc2)COC1 [Compound 79]
0.01 to 0.1 | Fc1ccc(Cc2cnc(N3CCN(c4ncnc(Nc5ccc6c(c5)CNCC6)n4)CC3)nc2)c(F)c1 [Compound 138]
0.01 to 0.1 | OC[C@@H](O)COc1ccc(Nc2ncnc(N3CCN(c4ncc(Cc5ccccc5)cn4)CC3)n2)cc1 [Compound 129]
0.01 to 0.1 | Cc1c(Nc2ncnc(N3CCN(c4ncc(Cc5ccccc5F)cn4)CC3)n2)cnn1C[C@@H]1CNCCO1 [Compound 272]
0.01 to 0.1 | C[C@@H]1CN(c2ncnc(Nc3cnn(C[C@@H]4CNCCO4)c3)n2)CCN1c1ncc(Cc2ccccc2)cn1 [Compound 183]
